One assay concerns P388. Kind of assay: Cytotoxicity against mouse P388 cells by tetrazolium-based colorimetric assay. Type of assay: functional. The conditions noted are these: for EC50: read-out: ED50 (the source's name).
The next assay has as its system HT-29. Kind of assay: Cytotoxicity against human HT-29 cells by tetrazolium-based colorimetric assay. The assay is classed as functional.
The next assay deals with A549. Kind of assay: Cytotoxicity against human A549 cells by tetrazolium-based colorimetric assay. Type of assay: functional, cell-based.

Values after ≈ are worked out from the molar mass of the structure shown. Active and inactive are the calls of the source. The calls are words filed in the database; no cut-off is given here.

For the molecule `CCCC(=O)O[C@H]1C/C(C)=C\[C@@H]2OC(=O)[C@](C)(O)[C@]2(O)[C@H](OC(C)=O)[C@H]2[C@@H](C)[C@@H](O)C[C@H](OC(C)=O)[C@]2(C)[C@H]1OC(C)=O` [BRIAEXCAVATOLIDE L], the EC50 with P388 turned out to be 0.5 µg/mL (≈ 0.816 µM).

In the case of `CC(=O)O[C@H]1CC/C(CO)=C\[C@@H]2OC(=O)[C@@]3(C)O[C@]23[C@H](O)[C@H]2[C@@H](C)[C@H](OC(C)=O)C=C[C@@]21C` (relative stereo), the values for the EC50 in the assay on HT-29 (read-out: ED50 (the source's name)) and with P388 were 1.1 µg/mL (≈ 2.37 µM) and 0.4 µg/mL (≈ 0.861 µM), respectively.

`CC(=O)O[C@@H]1[C@H](C)[C@@H]2[C@@H](OC(C)=O)[C@@]3(O)[C@H](/C=C(CO)\C=C/[C@H](O)[C@@]2(C)[C@H]2O[C@@H]12)OC(=O)[C@@H]3C`: the outcome in the assay on HT-29, in the assay with P388 and in the assay with A549 was inactive.

In the case of `CC(=O)O[C@@H]1[C@H](C)[C@@H]2[C@@H](OC(C)=O)[C@@]3(O)[C@H](/C=C(CCl)\C=C/[C@H](O)[C@@]2(C)[C@H]2O[C@@H]12)OC(=O)[C@@H]3C`, the result in the assay on HT-29, in the assay with P388 and in the assay with A549 was inactive.

As for `CC(=O)O[C@H]1C/C(C)=C\[C@@H]2OC(=O)[C@](C)(O)[C@]2(O)[C@H](OC(C)=O)[C@H]2[C@@H](C)[C@@H](O)C[C@H](OC(C)=O)[C@]2(C)[C@H]1OC(C)=O`, the result in the assay with HT-29, in the assay with P388 and in the assay with A549 was inactive.

The values above are taken from ChEMBL document CHEMBL1150568, “Briaexcavatolides K-N, new briarane diterpenes from the gorgonian Briareum excavatum” (2001).
